Test results from US20240285670A1, “THERAPEUTIC TREATMENT OF TUMORS BY BLOCKING THE HEME SYNTHESIS-EXPORT AXIS” (Università degli Studi di Torino, priority 2021, published 2024).

Experiments:
[1] = system: tumor cell; conditions: background art; cited from earlier work
[2] = system: Caco2 cells; test: Heme content (fluorescence assay) in Caco2 cells; type: cell-based, human; conditions: FLVCR1a-silenced Caco2 cells, 5 mM 5-ALA+0.5 mM SA
Method: (A) Heme content in Caco2 cells treated with 5 mM 5-ALA (black bars and white bars) or with 5 mM 5-ALA+0.5 mM SA (light grey outlined bars) for the indicated time points. […] Values are expressed as relative fluorescence intensity. Data represent mean±SEM, n=2. For statistical analyses, a two-way analysis of variance was used, followed by the Bonferroni correction for multiple group comparisons; **=p<0.01, ***=p<0.001. 5-ALA, 5-aminolevulinic acid; SA, succinylacetone. (B) Intracellular 5-ALA levels. […] Values are expressed as peak area/μg proteins. Data represent mean±SEM of n=4 wells pooled from two independent experiments. For statistical analyses, an unpaired Student's t-test was used; **=p<0.01. 5-ALA, 5-aminolevulinic acid. […] Values are expressed as peak area/μg proteins. […] Transcript abundance, normalized to beta-actin mRNA expression, is expressed as a fold increase over a calibrator sample. […] Band intensities were measured by densitometry and normalized to vinculin expression. […]
Intracellular heme concentration was measured using a fluorescence assay, as previously reported (Sinclair et al., 2001). […] Fluorescence (wavelength: excitation 405 nm-emission 660-720 nm) of the resultant protoporphyrin was assessed on a Glomax Multi Detection System (Promega Corporation, Madison WI, USA).
The endogenous protoporphyrin content (measured in parallel unheated samples in oxalic acid) was subtracted. […]

[3] = system: FLVCR1a-overexpressing Caco2 cells; test: TCA cycle flux in Caco2 cells overexpressing FLVCR1a; type: cell-based, human
Method: (A) TCA cycle flux in Caco2 cells expressing a scramble shRNA untreated or treated with 25 μM hemin for 2 hours. Moreover, the TCA cycle flux of untreated FLVCR1a-silenced Caco2 cells is reported for comparison. Results are expressed as pmol CO2/h/mg protein. Data represent mean±SEM, n=3. For statistical analyses, an unpaired Student's t-test was used to compare the two matched groups; *=p<0.05, ***=p<0.001. […] Results are expressed as pmol CO2/h/mg protein. Data represent mean±SEM, n=3. For statistical analyses, an unpaired Student's t-test was used; *=p<0.05, **=p<0.01. (C) TCA cycle flux in Caco2 cells overexpressing FLVCR1a (indicated as FLVCR1a+) are compared to cells stably transduced with an empty vector. Moreover, the TCA cycle flux of FLVCR1a-overexpressing Caco2 cells treated with 25 μM hemin or 0.5 mM SA for 2 hours is reported. Results are expressed as pmol CO2/h/mg protein. Data represent mean±SEM, n=3. For statistical analyses, an unpaired Student's t-test was used to compare the two matched groups; *=p<0.05, **=p<0.01. SA, succinylacetone. […]
(§1) The glucose flux through TCA cycle was measured by radiolabeling cells with 2 μCi/ml [6-^14C]-glucose (55 mCi/mmol; PerkinElmer, Waltham, MA, USA, catalog n° NEC045X). […] The amount of glucose transformed into CO2 through the TCA cycle was calculated as described (Riganti et al., 2004) and expressed as pmoles CO2/h/mg cell proteins.

[4] = system: lung tumor LLC cells; test: LLC cell viability (CellTiter-Fluor) as readout of proliferation; type: cell-based, murine; conditions: 0.5 mM SA at day 0, no medium refresh
[5] = system: Caco2 cells; test: TCA cycle flux in Caco2 cells; type: cell-based, human; conditions: control (scramble shRNA) Caco2 cells, 25 μM hemin for 2 hours
Text: TCA cycle flux is reported in the centre of the figure and expressed as pmol CO2/h/mg protein. Data represent mean±SEM, n=3. For statistical analyses, an unpaired Student's t-test was used. **=p<0.01. Moreover, TCA cycle enzymes activities are reported in boxes and expressed as mU/mg mitochondrial proteins. Data represent mean±SEM, n=3. For statistical analyses, an unpaired Student's t-test was used; *=p<0.05, ***=p<0.001. […] Results are expressed as pmol CO2/h/mg protein. Data represent mean±SEM, n=3. For statistical analyses, an unpaired Student's t-test was used; *=p<0.05, **=p<0.01.
(A) TCA cycle flux in Caco2 cells expressing a scramble shRNA untreated or treated with 25 μM hemin for 2 hours. Moreover, the TCA cycle flux of untreated FLVCR1a-silenced Caco2 cells is reported for comparison. Results are expressed as pmol CO2/h/mg protein. Data represent mean±SEM, n=3. […] Results are expressed as pmol CO2/h/mg protein. […] Results are expressed as pmol CO2/h/mg protein. […]
as §1

Compound | tumor cell survival and proliferation [1] | accumulation of de-novo synthesized heme [2] | reduction of the TCA cycle flux in FLVCR1a-overexpressing cells ([3]; 0.5 mM SA for 2 hours) | cell proliferation (cell viability) [4] | reduction of the TCA cycle flux in FLVCR1a-overexpressing cells ([3]; 25 μM hemin for 2 hours) | TCA cycle flux [5]
CC(=O)CC(=O)CCC(=O)O [SA, 4-6 Dioxoheptanoic acid] | reduce tumor cell survival and proliferation | blunted | reverted | effects on cell proliferation were similar | – | –
Hemin Ferriprotoporphyrin IX chloride [reference compound] | – | – | – | – | reverted | increased TCA cycle flux
